Measured values published in patent publication US11944627B2, “Methods for treating hematological malignancies and Ewing's sarcoma” (KURA ONCOLOGY, INC., priority 2017, dated 2024).

system: LXFE 2734 cells; experiment: Serial bleed FACS analysis and survival study in LXFE 2734 mouse model; conditions: LXFE 2734 model, compared to vehicle; FIG. 11
From the text: Human leukemia cells were detected by FACS biweekly starting from week 2 post-cell inoculation.

| SMILES | overall survival |
| --- | --- |
| CC(C)(C)c1cc(NC(=O)Nc2ccc(-c3cn4c(n3)sc3cc(OCCN5CCOCC5)ccc34)cc2)no1 [quizartinib] | prolonged survival |

same assay, conditions: LXFE 2734 model, quizartinib ~3 mg/kg qd

| SMILES | surviving animals |
| --- | --- |
| CC(C)(C)c1cc(NC(=O)Nc2ccc(-c3cn4c(n3)sc3cc(OCCN5CCOCC5)ccc34)cc2)no1 [quizartinib] | no quizartinib treated animals surviving after 77 days |

same assay, conditions: LXFE 2734 model; Compound A ~150 mg/kg p.o. qd, quizartinib ~3 mg/kg qd; FIG. 10

| SMILES | leukemic progression (CD45+/CD33+ blasts, FACS) |
| --- | --- |
| CC(C)(C)c1cc(NC(=O)Nc2ccc(-c3cn4c(n3)sc3cc(OCCN5CCOCC5)ccc34)cc2)no1 [quizartinib] | evidence of leukemia relapse |

target: T1, menin-MLL interaction (Homo sapiens, UniProt O00255); experiment: Fluorescence polarization (FP) competition assay; assay type: binding; conditions: read-out: Menin MLL 4-43 IC50
T1 sequence (O00255 1-610): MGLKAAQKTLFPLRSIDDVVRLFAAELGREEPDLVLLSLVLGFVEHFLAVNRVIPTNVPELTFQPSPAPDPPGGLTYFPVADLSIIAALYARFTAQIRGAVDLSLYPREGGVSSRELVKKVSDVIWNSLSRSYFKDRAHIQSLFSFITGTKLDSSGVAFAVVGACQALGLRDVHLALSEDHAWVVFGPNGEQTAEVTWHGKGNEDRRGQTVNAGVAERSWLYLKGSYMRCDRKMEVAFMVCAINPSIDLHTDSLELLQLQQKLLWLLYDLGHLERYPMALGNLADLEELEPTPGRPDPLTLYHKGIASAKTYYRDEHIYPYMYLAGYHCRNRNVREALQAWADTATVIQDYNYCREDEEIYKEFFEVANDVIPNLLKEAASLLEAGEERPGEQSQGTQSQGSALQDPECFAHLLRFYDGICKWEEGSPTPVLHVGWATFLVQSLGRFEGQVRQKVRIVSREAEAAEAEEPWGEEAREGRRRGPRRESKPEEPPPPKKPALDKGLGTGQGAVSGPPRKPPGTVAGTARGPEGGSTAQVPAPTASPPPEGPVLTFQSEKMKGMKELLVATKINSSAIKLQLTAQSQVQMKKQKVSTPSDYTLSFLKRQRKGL

| SMILES | IC50 [nM] |
| --- | --- |
| Cc1c(CN2CCC(Nc3ncnc4sc(CC(F)(F)F)cc34)CC2)ccc2c1cc(C#N)n2CCN1CCC2(CC1)CCN(S(C)(=O)=O)C2 [Compound I-52] | 250 to 1000 |

system: AM7577 cells; experiment: Serial bleed FACS analysis and survival study in AM7577 mouse model (Example 30); conditions: Compound A ~100 or ~150 mg/kg, quizartinib ~3 mg/kg, combination ~100 + ~2 mg/kg, p.o. qd, FIG. 8

| SMILES | leukemic progression (CD45+/CD38+ blasts, serial bleed FACS) |
| --- | --- |
| CC(C)(C)c1cc(NC(=O)Nc2ccc(-c3cn4c(n3)sc3cc(OCCN5CCOCC5)ccc34)cc2)no1 [quizartinib] | evidence of leukemia breakout after 63 days |

same assay, conditions: compared to vehicle, FIG. 9A

| SMILES | overall survival |
| --- | --- |
| CC(C)(C)c1cc(NC(=O)Nc2ccc(-c3cn4c(n3)sc3cc(OCCN5CCOCC5)ccc34)cc2)no1 [quizartinib] | prolonged survival |

same assay, conditions: quizartinib only treatment

| SMILES | surviving animals |
| --- | --- |
| CC(C)(C)c1cc(NC(=O)Nc2ccc(-c3cn4c(n3)sc3cc(OCCN5CCOCC5)ccc34)cc2)no1 [quizartinib] | no surviving animals after 84 days |

system: MLL-AF9 BMC; experiment: Cell proliferation assay, MLL-AF9 bone marrow cells; assay type: cell-based, murine; conditions: Mus musculus
Method: The ability of a compound of the present disclosure to inhibit the growth of selected cells was tested using a cell viability assay, such as the Promega CellTiter-Glo® Luminescent Cell Viability Assay (Promega Technical Bulletin, 2015, “CellTiter-Glo® Luminescent Cell Viability Assay”: 1-15, herein incorporated by reference in its entirety) or MTT cell proliferation assay (ATCC® 30-1010K) or cell counting. Compounds of the present disclosure can be tested in both acute myeloid leukemia cell lines or Ewing's sarcoma cell lines and control cell lines without the genetic abnormality or mutation being investigated (e.g., K562, REH, U937, KG-1, and/or HL-60). Selected cells can include, but are not limited to, cells such as human leukemia cell, acute myeloid leukemia cell, Ewing's sarcoma cell (e.g., SK-NEP-1, EW5, EW8, TC-71, TC-106, CHLA258, CHLA-9, CHLA-10, SK-ES-1, Hs 822.T, A-673, A-4573, Hs 863.T, RD-ES, CHLA-25, CHLA-32, CHLA-99, COG-E-352, TC-32, SK-N-MC), VCaP, LNCaP, 22RV1, DU145, LNCaP-AR, MV4;11, KOPN-8, ML-2, MOLM-13, RS4;11, SEM, bone marrow cells (BMCs), myeloblast cell, lymphoblast cell, NUP98 gene fusion cell (e.g., NUP98-PHF23 cell), NUP98-PHF23 (NP23) myeloblast cell (e.g., 961C), NUP98-PHF23 (NP23) lymphoblast cell (e.g., 748T, 106A), cell with an NPM1 mutation (e.g., OCI-AML3), cell without an NPM1 mutation, cell with a DNMT3A mutation (e.g., OCI-AML3, OCI-AML2, SET2), cell without a DNMT3A mutation, cell with a FLT3 mutation, cell without a FLT3 mutation, cell with an IDH1 mutation, cell without an IDH1 mutation, cell with an IDH2 mutation, cell without an IDH2 mutation, cell with a mixed lineage leukemia (MLL) gene amplification (e.g., UoC-M1, 2L1), cell without a mixed lineage leukemia (MLL) gene amplification, MLL-AF9, MLL-AF4, MLL-ENL, HM-2, E2A-HLF, REH, U937, HL-60, NB4, K562, KG-1, and OCI-AML2 cells. Cells were plated at relevant concentrations, for example about 1×10^5-2×10^5 cells per well in a 96-well plate. A compound of the present disclosure was added at a concentration up to about 2 μM with seven or eight, 2-fold serial dilutions for each compound. Cells were incubated at 37° C. for a period of time, for example, 72 hours, then cells in the control wells were counted. Media was changed to restore viable cell numbers to the original concentration, and compounds were re-supplied. Proliferation was measured about 72 hours later or about 96 hours later using Promega CellTiter-Glo® reagents or MTT reagents, as per kit instructions.

| SMILES | GI50 [nM] |
| --- | --- |
| Cc1c(CN2CCC(Nc3ncnc4sc(CC(F)(F)F)cc34)CC2)ccc2c1cc(C#N)n2C[C@@H](C)N1CCN(S(C)(=O)=O)CC1 [Compound I-9] | 250 to 1000 |
| Cc1c(CN2CCC(Nc3ncnc4sc(CC(F)(F)F)cc34)CC2)ccc2c1cc(C#N)n2C[C@H](C)N1CCN(S(C)(=O)=O)CC1 [Compound I-10] | 10 to 50 |
| Cc1c(CN2CCC(Nc3ncnc4sc(CC(F)(F)F)cc34)CC2)ccc2c1cc(C#N)n2CC(C)N1CCN(S(C)(=O)=O)C(C(N)=O)C1 (stereo not shown) [Compound I-80] | 10 to 50 |
| CNS(=O)(=O)N1CCN([C@@H](C)Cn2c(C#N)cc3c(C)c(CN4CCC(Nc5nc(N)nc6sc(CC(F)(F)F)cc56)CC4)ccc32)CC1 [Compound I-132] | < 10 |
| Cc1c(CN2CCC(Nc3nc(N)nc4sc(CC(F)(F)F)cc34)CC2)ccc2c1cc(C#N)n2C[C@H](C)N1CCN(S(C)(=O)=O)CC1 [Compound I-135] | < 10 |
| Cc1nc(NC2CCN(Cc3ccc4c(cc(C#N)n4C[C@H](C)N4CCN(S(C)(=O)=O)CC4)c3C)CC2)c2cc(CC(F)(F)F)sc2n1 [Compound I-138] | 10 to 50 |
| CNS(=O)(=O)N1CCN([C@@H](C)Cn2c(C#N)cc3c(C)c(CN4CCC(Nc5nc(C)nc6sc(CC(F)(F)F)cc56)CC4)ccc32)CC1 [Compound I-139] | 10 to 50 |
| CNc1nc(NC2CCN(Cc3ccc4c(cc(C#N)n4C[C@H](C)N4CCN(S(C)(=O)=O)CC4)c3C)CC2)c2cc(CC(F)(F)F)sc2n1 [Compound I-151] | < 10 |
| Cc1c(CN2CCC(Nc3ncnc4sc(CC(F)(F)F)cc34)CC2)ccc2c1cc(C#N)n2C[C@H](C)N1CCN(S(C)(=O)=O)[C@H](C(N)=O)C1 [Compound I-163] | < 10 |
| Cc1nc(NC2CCN(Cc3ccc4c(cc(C#N)n4C[C@H](C)N4CCC(S(C)(=O)=O)CC4)c3C)CC2)c2cc(CC(F)(F)F)sc2n1 [Compound I-165] | < 10 |
| CCc1nc(NC2CCN(Cc3ccc4c(cc(C#N)n4C[C@H](C)N4CCN(S(C)(=O)=O)CC4)c3C)CC2)c2cc(CC(F)(F)F)sc2n1 [Compound I-171] | 10 to 50 |
| C[C@@H](Cn1c(C#N)cc2cc(CN3CCC(Nc4nc(N)nc5sc(CC(F)(F)F)cc45)CC3)c(O)cc21)N1CCN(S(C)(=O)=O)CC1 [Compound I-172] | < 10 |
| CCNc1nc(NC2CCN(Cc3ccc4c(cc(C#N)n4C[C@H](C)N4CCN(S(C)(=O)=O)CC4)c3C)CC2)c2cc(CC(F)(F)F)sc2n1 [Compound I-174] | 10 to 50 |
| Cc1c(CN2CCC(Nc3nc(N)nc4sc(CC(F)(F)F)cc34)CC2)ccc2c1cc(C#N)n2C[C@H](C)N1CCN(CC(N)=O)CC1 [Compound I-175] | 10 to 50 |
| CNC(=O)CN1CCN([C@@H](C)Cn2c(C#N)cc3c(C)c(CN4CCC(Nc5nc(N)nc6sc(CC(F)(F)F)cc56)CC4)ccc32)CC1 [Compound I-176] | 10 to 50 |
| CNS(=O)(=O)N1CCN([C@@H](C)Cn2c(C#N)cc3cc(CN4CCC(Nc5nc(N)nc6sc(CC(F)(F)F)cc56)CC4)c(O)cc32)CC1 [Compound I-177] | < 10 |
| Cc1c(CN2CCC(Nc3nc(N)nc4sc(CC(F)(F)F)cc34)CC2)ccc2c1cc(C#N)n2C[C@H](C)N1CCN(CC(=O)N(C)C)CC1 [Compound I-181] | 10 to 50 |
| COc1nc(NC2CCN(Cc3ccc4c(cc(C#N)n4C[C@H](C)N4CCN(S(C)(=O)=O)CC4)c3C)CC2)c2cc(CC(F)(F)F)sc2n1 [Compound I-183] | < 10 |
| CNc1nc(NC2CCN(Cc3ccc4c(cc(C#N)n4C[C@H](C)N4CCC(C)(C#N)CC4)c3C)CC2)c2cc(CC(F)(F)F)sc2n1 [Compound I-199] | < 10 |
| CNc1nc(NC2CCN(Cc3ccc4c(cc(C#N)n4C[C@H](C)N4CCS(=O)(=O)CC4)c3C)CC2)c2cc(CC(F)(F)F)sc2n1 [Compound I-203] | < 10 |
| CNS(=O)(=O)N1CCN([C@@H](C)Cn2c(C#N)cc3c(C)c(CN4CCC(Nc5nc(OC)nc6sc(CC(F)(F)F)cc56)CC4)ccc32)CC1 [Compound I-205] | < 10 |
| CNc1nc(NC2CCN(Cc3ccc4c(cc(C#N)n4C[C@H](C)N4CCC(C)(O)CC4)c3C)CC2)c2cc(CC(F)(F)F)sc2n1 [Compound I-207] | < 10 |
| CNS(=O)(=O)C1CCN([C@@H](C)Cn2c(C#N)cc3c(C)c(CN4CCC(Nc5nc(OC)nc6sc(CC(F)(F)F)cc56)CC4)ccc32)CC1 [Compound I-214] | < 10 |
| CNC(=O)C1CN([C@@H](C)Cn2c(C#N)cc3c(C)c(CN4CCC(Nc5nc(NC)nc6sc(CC(F)(F)F)cc56)CC4)ccc32)CCO1 (stereo partly shown) [Compound I-217] | 10 to 50 |
